# Laboratory results as given in patent publication US9409893B2, “Heteroaryl derivatives and uses thereof” (Jacobus Pharmaceutical Company, Inc., priority 2012, dated 2016).
# Like-named read-outs stand apart in the source and are kept apart here. Marks after values point to notes of the source that are not given here.
# Columns and labels:
# P. falciparum strain W2 = assay: [3H]-hypoxanthine growth inhibition assay, P. falciparum W2; assay type: cell-based; settings: Plasmodium falciparum
# Outline: (§1)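 Parasites cultured in human O Rh+ RBCs in RPMI-1640-LPLF (low PABA and folic acid) with 10% human plasma, pH 6.9, 37° C, 5% O2/5% CO2/90% N2. Sorbitol-synchronised ring-stage cultures started at 1% parasitaemia; growth measured as [3H]-hypoxanthine incorporation in hypoxanthine-free medium. Compound stocks 1 mM in DMSO.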
# P. falciparum strain D6 = assay: [3H]-hypoxanthine growth inhibition assay, P. falciparum D6; assay type: cell-based; settings: Plasmodium falciparum
# Outline: as §1
# [1] = tested on: Plasmodium berghei (KBG-173 strain); assay: Plasmodium berghei assay in vivo (modified Thompson Test) in CD-1 mice; settings: for Average Days Survival: 31 day experiment
# Experimental: In vivo antimalarial activity was tested in male or female Charles River CD-1 mice that were 4-5 weeks old and weighed 20-25 g They were housed in groups of 3 or 4 in standard plastic cages with wire tops, Bed-o-Cob® bedding, 12 hr/day of light, and maintained at 75° F. They were fed a standard Ralston Purina mouse chow and the cages and bottles were changed twice a week. Test compounds were ground in a mortar and pestle and diluted with enough vehicle to give a volume of 10 mL/kg of mouse weight. The oral doses were prepared in 0.5% hydroxyethylcellulose (Union Carbide Corp. WP 4400)/0.1% Tween-80 (Fisher Scientific T164-500). The amount of drug was calculated on the free base weight. The mice were infected intraperitoneally on day 0 with 5×10^4 erythrocytes parasitized with Plasmodium berghei (KBG-173 strain) from a donor mouse having a parasitemia between 5-10%. On days 3, 4 and 5 the test compounds were administered bid, spaced 6 hr apart, by oral gavage to the mice. Activity was measured by survival, with full activity defined as all animals living at day 31. Partial activity is defined as days of increased survival versus the infected non-treated controls. This in vivo model is a modification of the Thompson Test. For further description see Ager, A. L, Jr. Rodent Malaria Models. In Handbook of Experimental Pharmacology: Antimalarial Drugs. 1. 68/1; Peters, W., Richards, W. H. G., Eds.: Springer-Verlag: Berlin, 1984, pp. 231-33.
# [2] = 4 mg/kg/day oral, bid on days 3, 4 and 5
# [3] = 16 mg/kg/day oral, bid on days 3, 4 and 5
# [4] = 64 mg/kg/day oral, bid on days 3, 4 and 5
# [5] = Plasmodium berghei, po, 744 h, read-out: Number of mice alive at day 31
# [6] = P. falciparum W2 (resistant to chloroquine and pyrimethamine), [3H]-hypoxanthine incorporation, read-out: W2 IC50
# [7] = P. falciparum D6 (sensitive to chloroquine and pyrimethamine), [3H]-hypoxanthine incorporation, read-out: D6 IC50
# [8] = 8 mg/kg/day oral, bid on days 3, 4 and 5
# [9] = 32 mg/kg/day oral, bid on days 3, 4 and 5
# [10] = Plasmodium berghei, 744 h, 4 mg/kg/day oral, bid on days 3, 4 and 5, CD-1 mice infected with P. berghei, read-out: Number of mice alive at day 31 (converted)
# [11] = Plasmodium berghei, 744 h, 8 mg/kg/day oral, bid on days 3, 4 and 5, CD-1 mice infected with P. berghei, read-out: Number of mice alive at day 31 (converted)
# [12] = Plasmodium berghei, 744 h, 16 mg/kg/day oral, bid on days 3, 4 and 5, CD-1 mice infected with P. berghei, read-out: Number of mice alive at day 31 (converted)
# [13] = Plasmodium berghei, 744 h, 32 mg/kg/day oral, bid on days 3, 4 and 5, CD-1 mice infected with P. berghei, read-out: Number of mice alive at day 31 (converted)
# [14] = Plasmodium berghei, 744 h, 64 mg/kg/day oral, bid on days 3, 4 and 5, CD-1 mice infected with P. berghei, read-out: Number of mice alive at day 31 (converted)
SMILES,"IC50 (P. falciparum strain W2; W2, read-out: W2 IC50) [nM]","IC50 (P. falciparum strain D6; D6, read-out: D6 IC50) [nM]","Average Days Survival [1, 2]","Average Days Survival [1, 3]","Average Days Survival [1, 4]","Average Days Survival ([1]; 128 mg/kg/day oral, bid on days 3, 4 and 5) [days]","responders at 4 mg/kg [1, 5] [%]","responders at 16 mg/kg [1, 5] [%]","responders at 64 mg/kg [1, 5] [%]","responders at 128 mg/kg [1, 5] [%]",IC50 (P. falciparum strain W2; [6]) [nM],IC50 (P. falciparum strain D6; [7]) [nM],"Average Days Survival [1, 8]","Average Days Survival [1, 9]","responders at 4 mg/kg [1, 10] [%]","responders at 8 mg/kg [1, 11] [%]","responders at 16 mg/kg [1, 12] [%]","responders at 32 mg/kg [1, 13] [%]","responders at 64 mg/kg [1, 14] [%]"
"CCN(CC)CCCC(C)Nc1ccnc2cc(Cl)ccc12 (stereo not shown) [Chloroquine, chloroquine, reference compound]",133,12,10.3 days,>18.8 days,>18.6 days,>21.3,0,14.3,28.6,57.1,–,–,–,–,–,–,–,–,–
"CC(C)(C)NCc1cc(C(C)(C)C)cc(-c2cnc(Cl)c(Cl)c2)c1O.Cl [Example 41, 4-(tert-Butyl)-2-((tert-butylamino)methyl)-6-(5,6-dichloropyridin-3-yl)phenol hydrochloride]",–,–,>31* days,>31* days,>31* days,–,–,–,–,–,3,10,>31* days,>31* days,100,100,100,100,100
"CC(C)(C)NCc1cc(C(C)(C)C)cc(-c2cnc(C(F)(F)F)c(Cl)c2)c1O.Cl [Example 44, 4-(tert-Butyl)-2-((tert-butylamino)methyl)-6-(5-chloro-6-(trifluoromethyl)pyridin-3-yl)phenol hydrochloride]",–,–,>31* days,>31* days,>31* days,–,–,–,–,–,6,11,>31* days,>31* days,100,100,100,100,100
"CC(C)(C)c1cc(CN(CC2CCCCC2)C(C)(C)C)c(O)c(-c2ccc(C(F)(F)F)nc2)c1.Cl [Example 58, 4-(tert-Butyl)-2-((tert-butyl(cyclohexylmethyl)amino)methyl)-6-(6-(trifluoromethyl)pyridin-3-yl)phenol hydrochloride]",–,–,>17.5 days,>23.8 days,>31* days,–,–,–,–,–,541,1020,>20 days,>26 days,14.3,42.9,42.9,85.7,100
"CC(C)(C)NCc1cc(-c2ccc(F)cc2)cc(-c2ccc(C(F)(F)F)nc2)c1O.Cl [Example 66, 3-((tert-Butylamino)methyl)-4′-fluoro-5-(6-(trifluoromethyl)pyridin-3-yl)-[1,1′-biphenyl]-4-ol hydrochloride]",–,–,>21.3 days,>31* days,>7 days,–,–,–,–,–,41,70,>26 days,>24 days,14.3,85.7,100,85.7,85.7
"CC(C)(C)NCc1cc(-c2ccc(Cl)cc2)cc(-c2ccc(C(F)(F)F)nc2)c1O.Cl [Example 70, 3-((tert-Butylamino)methyl)-4′-chloro-5-(6-(trifluoromethyl)pyridin-3-yl)-[1,1′-biphenyl]-4-ol hydrochloride]",–,–,>19.5 days,>19 days,>31* days,–,–,–,–,–,48,90,>21.5 days,>31* days,42.9,71.4,57.1,100,100
"CC(C)(C)c1cc2c(c(-c3ccc(C(F)(F)F)nc3)c1)OCN(C(C)(C)C)C2 [Example 75, 3,6-di-tert-Butyl-8-(6-(trifluoromethyl)pyridin-3-yl)-3,4-dihydro-2H-benzo[e][1,3]oxazine]",–,–,>22 days,>31* days,>31* days,–,–,–,–,–,12,20,>25 days,>31* days,57.1,57.1,100,100,100
